Where two headings read alike, the source gives them in different places.
Molecular target: T1, AR protein (Homo sapiens, UniProt P10275, T878A)
T1 construct: The percent AR protein degradation induced by these compounds at various concentrations in LNCaP cells; host or cells: LNCaP
T1 sequence (P10275 1-920 T878A): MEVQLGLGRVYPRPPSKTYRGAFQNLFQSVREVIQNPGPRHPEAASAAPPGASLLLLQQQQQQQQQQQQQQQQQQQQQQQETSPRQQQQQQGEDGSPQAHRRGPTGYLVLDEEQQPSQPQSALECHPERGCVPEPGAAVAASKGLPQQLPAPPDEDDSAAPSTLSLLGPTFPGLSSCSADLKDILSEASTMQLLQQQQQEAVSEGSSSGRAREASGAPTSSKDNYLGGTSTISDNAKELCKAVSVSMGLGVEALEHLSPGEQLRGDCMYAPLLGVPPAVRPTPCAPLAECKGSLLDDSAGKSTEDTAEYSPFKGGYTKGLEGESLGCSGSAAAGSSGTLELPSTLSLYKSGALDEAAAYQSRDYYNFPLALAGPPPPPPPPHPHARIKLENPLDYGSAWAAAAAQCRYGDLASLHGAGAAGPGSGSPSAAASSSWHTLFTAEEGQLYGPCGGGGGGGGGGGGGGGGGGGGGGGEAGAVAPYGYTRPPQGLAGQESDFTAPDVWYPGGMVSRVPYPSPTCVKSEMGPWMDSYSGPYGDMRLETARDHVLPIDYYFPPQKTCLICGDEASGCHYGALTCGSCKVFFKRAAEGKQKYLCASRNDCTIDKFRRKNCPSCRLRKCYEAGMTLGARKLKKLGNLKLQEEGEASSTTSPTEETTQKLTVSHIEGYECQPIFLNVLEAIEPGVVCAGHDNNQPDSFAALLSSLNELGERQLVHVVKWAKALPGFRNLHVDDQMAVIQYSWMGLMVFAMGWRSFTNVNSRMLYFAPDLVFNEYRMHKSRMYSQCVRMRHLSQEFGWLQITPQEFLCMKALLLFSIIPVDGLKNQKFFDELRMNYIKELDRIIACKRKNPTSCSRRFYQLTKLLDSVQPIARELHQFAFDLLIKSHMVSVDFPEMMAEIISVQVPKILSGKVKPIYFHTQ
Test: AR protein degradation in LNCaP cells (Western blotting)
Format: cell-based
Details: for Dmax at 0.01 µM / Dmax at 0.1 µM / Dmax at 1 µM / Dmax at 10 µM / AR degradation (Western blotting, dose-dependent): LNCaP; for Dmax at 0.1 µM / Dmax at 1 µM / Dmax at 10 µM: read-out: % AR protein degradation in LNCaP Cells
Description: Cell lines and Cell Culture: All the LNCaP, VCaP and 22RV1 cells used were purchased from American Type Culture Collection (ATCC). […] All of the cells were supplemented with 10% fetal bovine serum (Invitrogen) at 37° C. in a humidified 5% CO2 incubator.
Western Blotting. Treated cells were lysed by RIPA buffer supplemented with protease and phosphatase inhibitors. […] Software ImageJ was used to quantify the percentage of AR degradation. The net protein bands and loading controls are calculated by deducting the background from the inverted band value. The final relative quantification values are the ratio of net band to net loading control.

[1] = 0.01 μM, treatment time 6 h, average of three independent experiments
[2] = 0.1 μM, treatment time 6 h, average of three independent experiments
[3] = 1 μM, treatment time 6 h, average of three independent experiments
[4] = 10 μM, treatment time 6 h, average of three independent experiments

Structure (SMILES) | Dmax at 0.01 µM [1] | Dmax at 0.1 µM [2] | Dmax at 1 µM [3] | Dmax at 10 µM [4] | other results
Cc1ncsc1-c1ccc([C@H](C)NC(=O)[C@@H]2C[C@@H](O)CN2C(=O)[C@@H](NC(=O)CCCCN2CCN(c3ccc(C#Cc4ccc(N5C(=S)N(c6ccc(C#N)c(C(F)(F)F)c6)C(=O)C5(C)C)cc4)cn3)CC2)C(C)(C)C)cc1 [Compound 22, (2S,4R)-1-((S)-2-(5-(4-(5-((4-(3-(4-Cyano-3-(trifluoromethyl)phenyl)-5,5-dimethyl-4-oxo-2-thioxoimidazolidin-1-yl)phenyl)ethynyl)pyridin-2-yl)piperazin-1-yl)pentanamido)-3,3-dimethylbutanoyl)-4-hydroxy-N—((S)-1-(4-(4-methylthiazol-5-yl)phenyl)ethyl)pyrrolidine-2-carboxamide] | 28% | 48% | 89% | – | –
Cc1ncsc1-c1ccc(CNC(=O)C2C[C@@H](O)CN2C(=O)[C@@H](NC(=O)CCCNC(=O)c2ccc(N3C(=S)N(c4ccc(C#N)c(C(F)(F)F)c4)C(=O)C3(C)C)cc2F)C(C)(C)C)cc1 (stereo partly drawn) [Compound 9, (4R)-1-((S)-2-(4-(4-(3-(4-Cyano-3-(trifluoromethyl)phenyl)-5,5-dimethyl-4-oxo-2-thioxoimidazolidin-1-yl)-2-fluorobenzamido)butanamido)-3,3-dimethylbutanoyl)-4-hydroxy-N-(4-(4-methylthiazol-5-yl)benzyl)pyrrolidine-2-carboxamide] | – | 15% | 23% | 33% | –
Cc1cc([C@H](C(=O)N2C[C@H](O)C[C@H]2C(=O)N[C@@H](CC(=O)N2CCC(N3CCC(C#Cc4ccc(N5C(=S)N(c6ccc(C#N)c(C(F)(F)F)c6)C(=O)C5(C)C)cc4)CC3)CC2)c2ccc(-c3scnc3C)cc2)C(C)C)on1 [Compound 29, (2S,4R)—N—((S)-3-(4-((4-(3-(4-Cyano-3-(trifluoromethyl)phenyl)-5,5-dimethyl-4-oxo-2-thioxoimidazolidin-1-yl)phenyl)ethynyl)-[1,4′-bipiperidin]-1′-yl)-1-(4-(4-methylthiazol-5-yl)phenyl)-3-oxopropyl)-4-hydroxy-1-((R)-3-methyl-2-(3-methylisoxazol-5-yl)butanoyl)pyrrolidine-2-carboxamide] | 20% | 81% | 97% | – | –
Cc1ncsc1-c1ccc(CNC(=O)C2C[C@@H](O)CN2C(=O)[C@@H](NC(=O)CCCCCCNC(=O)c2ccc(N3C(=S)N(c4ccc(C#N)c(C(F)(F)F)c4)C(=O)C3(C)C)cc2F)C(C)(C)C)cc1 (stereo partly drawn) [Compound 12, (4R)-1-((S)-2-(7-(4-(3-(4-Cyano-3-(trifluoromethyl)phenyl)-5,5-dimethyl-4-oxo-2-thioxoimidazolidin-1-yl)-2-fluorobenzamido)heptanamido)-3,3-dimethylbutanoyl)-4-hydroxy-N-(4-(4-methylthiazol-5-yl)benzyl)pyrrolidine-2-carboxamide] | – | 54% | 84% | 64% | –
Cc1ncsc1-c1ccc(CNC(=O)C2C[C@@H](O)CN2C(=O)[C@@H](NC(=O)CCOCCOCCNC(=O)c2ccc(N3C(=S)N(c4ccc(C#N)c(C(F)(F)F)c4)C(=O)C3(C)C)cc2F)C(C)(C)C)cc1 (stereo partly drawn) [Compound 18, (4R)-1-((S)-13-(tert-Butyl)-1-(4-(3-(4-cyano-3-(trifluoromethyl)phenyl)-5,5-dimethyl-4-oxo-2-thioxoimidazolidin-1-yl)-2-fluorophenyl)-1,11-dioxo-5,8-dioxa-2,12-diazatetradecan-14-oyl)-4-hydroxy-N-(4-(4-methylthiazol-5-yl)benzyl)pyrrolidine-2-carboxamide] | – | 32% | 35% | 40% | –
Cc1ncsc1-c1ccc([C@H](C)NC(=O)C2C[C@@H](O)CN2C(=O)[C@@H](NC(=O)CCN2CCN(c3ccc(C#Cc4ccc(N5C(=S)N(c6ccc(C#N)c(C(F)(F)F)c6)C(=O)C5(C)C)cc4)cn3)CC2)C(C)(C)C)cc1 (stereo partly drawn) [Compound 23, (4R)-1-((S)-2-(3-(4-(5-((4-(3-(4-Cyano-3-(trifluoromethyl)phenyl)-5,5-dimethyl-4-oxo-2-thioxoimidazolidin-1-yl)phenyl)ethynyl)pyridin-2-yl)piperazin-1-yl)propanamido)-3,3-dimethylbutanoyl)-4-hydroxy-N—((S)-1-(4-(4-methylthiazol-5-yl)phenyl)ethyl)pyrrolidine-2-carboxamide] | 34% | 51% | 78% | – | –
Cc1cc([C@H](C(=O)N2C[C@H](O)C[C@H]2C(=O)N[C@@H](CC(=O)N2CCC(N3CCC(C#Cc4ccc(C(=O)N[C@H]5C(C)(C)[C@H](Oc6ccc(C#N)c(Cl)c6)C5(C)C)cc4)CC3)CC2)c2ccc(-c3scnc3C)cc2)C(C)C)on1 [Compound 32, (2S,4R)—N—((S)-3-(4-((4-(((1r,3r)-3-(3-Chloro-4-cyanophenoxy)-2,2,4,4-tetramethyl-cyclobutyl)carbamoyl)phenyl)ethynyl)-[1,4′-bipiperidin]-1′-yl)-1-(4-(4-methylthiazol-5-yl)phenyl)-3-oxopropyl)-4-hydroxy-1-((R)-3-methyl-2-(3-methylisoxazol-5-yl)butanoyl)pyrrolidine-2-carboxamide] | – | – | – | – | % AR protein degradation in LNCaP Cells [1]: 76%; % AR protein degradation in LNCaP Cells [2]: 98%; % AR protein degradation in LNCaP Cells [3]: 99%; AR degradation (Western blotting, dose-dependent) (at 10 nM): partial AR degradation; AR degradation (Western blotting, dose-dependent) (at both 100 nM and 1 μM): essentially complete AR degradation
Cc1ncsc1-c1ccc([C@H](C)NC(=O)C2C[C@@H](O)CN2C(=O)[C@@H](NC(=O)CCCN2CCN(c3ccc(C#Cc4ccc(N5C(=S)N(c6ccc(C#N)c(C(F)(F)F)c6)C(=O)C5(C)C)cc4)cn3)CC2)C(C)(C)C)cc1 (stereo partly drawn) [Compound 21, (4R)-1-((S)-2-(4-(4-(5-((4-(3-(4-Cyano-3-(trifluoromethyl)phenyl)-5,5-dimethyl-4-oxo-2-thioxoimidazolidin-1-yl)phenyl)ethynyl)pyridin-2-yl)piperazin-1-yl)butanamido)-3,3-dimethylbutanoyl)-4-hydroxy-N—((S)-1-(4-(4-methylthiazol-5-yl)phenyl)ethyl)pyrrolidine-2-carboxamide] | 37% | 61% | 92% | – | –
Cc1cc([C@H](C(=O)N2C[C@H](O)C[C@H]2C(=O)N[C@@H](CC(=O)N2CCC(N3CCC(C#Cc4ccc(Cc5c(C)nn(-c6ccc(C#N)c(Cl)c6)c5C)cc4)CC3)CC2)c2ccc(-c3scnc3C)cc2)C(C)C)on1 [Compound 33, (2S,4R)—N—((S)-3-(4-((4-((1-(3-Chloro-4-cyanophenyl)-3,5-dimethyl-1H-pyrazol-4-yl)methyl)phenyl)ethynyl)-[1,4′-bipiperidin]-1′-yl)-1-(4-(4-methylthiazol-5-yl)phenyl)-3-oxopropyl)-4-hydroxy-1-((R)-3-methyl-2-(3-methylisoxazol-5-yl)butanoyl)pyrrolidine-2-carboxamide] | – | – | – | – | Dmax at 0.1 µM (6 h): 65%; Dmax at 1 µM (6 h): 93%; Dmax at 10 µM (6 h): 78%
Cc1ncsc1-c1ccc([C@H](CC(=O)N2CCC(N3CCC(C#Cc4ccc(C(=O)N[C@H]5C(C)(C)[C@H](Oc6ccc(C#N)c(Cl)c6)C5(C)C)cc4)CC3)CC2)NC(=O)[C@@H]2C[C@@H](O)CN2C(=O)[C@H](NC(=O)C2(F)CC2)C(C)(C)C)cc1 [Compound 38, (2S,4R)—N—((S)-3-(4-((4-(((1r,3r)-3-(3-Chloro-4-cyanophenoxy)-2,2,4,4-tetramethyl-cyclobutyl)carbamoyl)phenyl)ethynyl)-[1,4′-bipiperidin]-1′-yl)-1-(4-(4-methylthiazol-5-yl)phenyl)-3-oxopropyl)-1-((R)-2-(1-fluorocyclopropane-1-carboxamido)-3,3-dimethyl-butanoyl)-4-hydroxypyrrolidine-2-carboxamide] | – | – | – | – | % AR protein degradation in LNCaP Cells [2]: <5%; % AR protein degradation in LNCaP Cells [3]: <5%; % AR protein degradation in LNCaP Cells [4]: <5%

Source: US20220081435A1, “ANDROGEN RECEPTOR PROTEIN DEGRADERS” (THE REGENTS OF THE UNIVERSITY OF MICHIGAN, priority 2019, published 2022)
